Source: article PMC5218480 (PLoS ONE, 2017)

Tested on: MV-4-11 cells
Assay: Gene expression microarray analysis (Affymetrix PrimeView) and GSEA
Type: cell-based, human
Set-up: RFU PODN (11730768_x_at) / Fold change /veh PODN (11730768_x_at) / RFU LINC00158 (11744669_a_at) / Fold change /veh LINC00158 (11744669_a_at) / RFU DUSP10 (11751237_a_at) / Fold change /veh DUSP10 (11751237_a_at) / RFU ID3 (11757404_x_at) / Fold change /veh ID3 (11757404_x_at) / RFU PLEKHG5 (11737974_s_at) / Fold change /veh PLEKHG5 (11737974_s_at) / RFU LRRC4B (11730491_at) / Fold change /veh LRRC4B (11730491_at) / RFU GIMAP4 (11747438_a_at) / Fold change /veh GIMAP4 (11747438_a_at) / RFU KRT8 (11758183_x_at) / Fold change /veh KRT8 (11758183_x_at) / RFU CNN1 (11734310_a_at) / Fold change /veh CNN1 (11734310_a_at) / RFU VPS37D (11726825_at) / Fold change /veh VPS37D (11726825_at) / RFU C10orf10 (11716522_x_at) / Fold change /veh C10orf10 (11716522_x_at) / RFU KIR2DL2 /// KIR2DL4 /// KIR2DL5A /// KIR2DL5B /// KIR2DS1 /// KIR2DS2 /// KIR2DS3 /// KIR2DS4 /// KIR3DL3 /// KIR3DL3 /// KIR3DS1 (11738374_at) / Fold change /veh KIR2DL2 /// KIR2DL4 /// KIR2DL5A /// KIR2DL5B /// KIR2DS1 /// KIR2DS2 /// KIR2DS3 /// KIR2DS4 /// KIR3DL3 /// KIR3DL3 /// KIR3DS1 (11738374_at) / RFU C1QL1 (11718748_at) / Fold change /veh C1QL1 (11718748_at) / RFU TMPRSS4 (11747572_a_at) / Fold change /veh TMPRSS4 (11747572_a_at) / RFU HAMP (11756126_x_at) / Fold change /veh HAMP (11756126_x_at) / RFU RNFT2 (11725882_a_at) / Fold change /veh RNFT2 (11725882_a_at) / RFU NR4A2 (11747474_a_at) / Fold change /veh NR4A2 (11747474_a_at) / RFU ABCC12 (11746883_a_at) / Fold change /veh ABCC12 (11746883_a_at) / RFU TMEM136 (11760407_x_at) / Fold change /veh TMEM136 (11760407_x_at) / RFU CLDN22 /// WWC2 (11732394_at) / Fold change /veh CLDN22 /// WWC2 (11732394_at) / RFU HLA-DPB1 (11760878_x_at) / Fold change /veh HLA-DPB1 (11760878_x_at) / RFU SPINT1 (11716480_a_at) / Fold change /veh SPINT1 (11716480_a_at) / RFU GAP43 (11754022_s_at) / Fold change /veh GAP43 (11754022_s_at) / RFU A4GNT (11735810_at) / Fold change /veh A4GNT (11735810_at) / RFU PRB3 (11715151_x_at) / Fold change /veh PRB3 (11715151_x_at) / RFU TUBB4B (11761932_at) / Fold change /veh TUBB4B (11761932_at) / RFU CAPN14 (11732068_a_at) / Fold change /veh CAPN14 (11732068_a_at) / RFU TMCC2 (11721928_a_at) / Fold change /veh TMCC2 (11721928_a_at) / RFU IRGQ (11745062_a_at) / Fold change /veh IRGQ (11745062_a_at) / RFU FAM174B (11720279_a_at) / Fold change /veh FAM174B (11720279_a_at) / RFU TMPRSS4 (11748680_a_at) / Fold change /veh TMPRSS4 (11748680_a_at) / RFU FAM212B (11763350_a_at) / Fold change /veh FAM212B (11763350_a_at) / RFU PLEKHG5 (11743358_a_at) / Fold change /veh PLEKHG5 (11743358_a_at) / RFU ZSCAN30 (11745921_a_at) / Fold change /veh ZSCAN30 (11745921_a_at) / RFU CMKLR1 (11741424_a_at) / Fold change /veh CMKLR1 (11741424_a_at) / RFU LOC101060620 /// MAPK8IP1 (11723275_at) / Fold change /veh LOC101060620 /// MAPK8IP1 (11723275_at) / RFU SPTSSB (11747773_x_at) / Fold change /veh SPTSSB (11747773_x_at) / RFU PRSS12 (11739890_at) / Fold change /veh PRSS12 (11739890_at) / RFU BIN1 (11741810_x_at) / Fold change /veh BIN1 (11741810_x_at) / RFU WNT11 (11732464_a_at) / Fold change /veh WNT11 (11732464_a_at) / RFU C10orf10 (11716521_a_at) / Fold change /veh C10orf10 (11716521_a_at) / RFU C5orf56 (11738089_at) / Fold change /veh C5orf56 (11738089_at) / RFU CYB561 (11721691_x_at) / Fold change /veh CYB561 (11721691_x_at) / RFU ANKRD19P (11752326_a_at) / Fold change /veh ANKRD19P (11752326_a_at) / RFU OR2T12 /// OR2T33 /// OR2T8 (11738714_s_at) / Fold change /veh OR2T12 /// OR2T33 /// OR2T8 (11738714_s_at) / RFU VCAN (11748164_a_at) / Fold change /veh VCAN (11748164_a_at) / RFU JSRP1 (11732532_at) / Fold change /veh JSRP1 (11732532_at) / RFU KRTAP10-11 (11738290_x_at) / Fold change /veh KRTAP10-11 (11738290_x_at) / RFU MYO3A (11730013_a_at) / Fold change /veh MYO3A (11730013_a_at) / RFU EBF3 (11725865_a_at) / Fold change /veh EBF3 (11725865_a_at) / RFU CAMK2N1 (11719241_x_at) / Fold change /veh CAMK2N1 (11719241_x_at) / RFU C5orf56 (11738088_a_at) / Fold change /veh C5orf56 (11738088_a_at) / RFU OLFML3 (11715873_a_at) / Fold change /veh OLFML3 (11715873_a_at) / RFU LOC100653217 /// NTM (11731650_a_at) / Fold change /veh LOC100653217 /// NTM (11731650_a_at) / RFU MAPK11 (11762145_a_at) / Fold change /veh MAPK11 (11762145_a_at) / RFU FIZ1 (11724087_x_at) / Fold change /veh FIZ1 (11724087_x_at) / RFU OASL (11726364_x_at) / Fold change /veh OASL (11726364_x_at) / RFU SOX15 (11748057_x_at) / Fold change /veh SOX15 (11748057_x_at) / RFU CD79A (11719716_a_at) / Fold change /veh CD79A (11719716_a_at) / RFU HIST1H1D (11736915_at) / Fold change /veh HIST1H1D (11736915_at) / RFU CASKIN2 (11723855_a_at) / Fold change /veh CASKIN2 (11723855_a_at) / RFU LOC730098 (11760151_x_at) / Fold change /veh LOC730098 (11760151_x_at) / RFU OR4N2 (11742367_at) / Fold change /veh OR4N2 (11742367_at) / RFU PRRT2 (11749266_a_at) / Fold change /veh PRRT2 (11749266_a_at) / RFU SNX32 (11753110_a_at) / Fold change /veh SNX32 (11753110_a_at) / RFU CDHR5 (11726645_a_at) / Fold change /veh CDHR5 (11726645_a_at) / RFU RCAN1 (11760418_a_at) / Fold change /veh RCAN1 (11760418_a_at) / RFU FAM167A (11723789_a_at) / Fold change /veh FAM167A (11723789_a_at) / RFU FAM26E (11764081_at) / Fold change /veh FAM26E (11764081_at) / RFU ISYNA1 (11749810_s_at) / Fold change /veh ISYNA1 (11749810_s_at) / RFU ACY1 (11761880_at) / Fold change /veh ACY1 (11761880_at) / RFU 11764098_at / Fold change /veh 11764098_at / RFU SAMD14 (11745864_x_at) / Fold change /veh SAMD14 (11745864_x_at) / RFU NPB (11741838_a_at) / Fold change /veh NPB (11741838_a_at) / RFU TMPRSS6 (11731388_a_at) / Fold change /veh TMPRSS6 (11731388_a_at) / RFU KRTAP10-2 (11738614_at) / Fold change /veh KRTAP10-2 (11738614_at) / RFU ARHGAP8 /// PRR5-ARHGAP8 (11727945_x_at) / Fold change /veh ARHGAP8 /// PRR5-ARHGAP8 (11727945_x_at) / RFU KRTAP5-7 /// NADSYN1 (11734609_at) / Fold change /veh KRTAP5-7 /// NADSYN1 (11734609_at) / RFU RASL12 (11751679_a_at) / Fold change /veh RASL12 (11751679_a_at) / RFU CDKN2B (11736163_a_at) / Fold change /veh CDKN2B (11736163_a_at) / RFU PRF1 (11729649_at) / Fold change /veh PRF1 (11729649_at) / RFU, ZNF638 /// ZNF638-IT1 / Fold change vs veh, ZNF638 /// ZNF638-IT1 / RFU, PANK3 / Fold change vs veh, PANK3 / RFU, SH3YL1 / Fold change vs veh, SH3YL1 / RFU, ZEB2 / Fold change vs veh, ZEB2 / RFU, NRIP1 / Fold change vs veh, NRIP1 / RFU, PTTG1IP / Fold change vs veh, PTTG1IP / RFU, CAPN2 / Fold change vs veh, CAPN2 / RFU, MED14 / Fold change vs veh, MED14 / RFU, SNORA58 / Fold change vs veh, SNORA58 / RFU, C1orf63 / Fold change vs veh, C1orf63 / RFU, LRRFIP1 / Fold change vs veh, LRRFIP1 / RFU, NDUFAF7 / Fold change vs veh, NDUFAF7 / RFU, SLC12A2 / Fold change vs veh, SLC12A2 / RFU, IBTK / Fold change vs veh, IBTK / RFU, ESF1 / Fold change vs veh, ESF1 / Fold change vs veh, TMEM50B / RFU, TAOK1 / Fold change vs veh, TAOK1 / RFU, ACBD3 / Fold change vs veh, ACBD3 / RFU, TMA16 / Fold change vs veh, TMA16 / RFU, RWDD3 / Fold change vs veh, RWDD3 / RFU, BCAT1 / Fold change vs veh, BCAT1 / RFU, EDEM3 / Fold change vs veh, EDEM3 / RFU, TMEM33 / Fold change vs veh, TMEM33 / RFU, WDR75 / Fold change vs veh, WDR75 / RFU, AHCTF1 / Fold change vs veh, AHCTF1 / RFU, TFRC / Fold change vs veh, TFRC / RFU, ZDHHC17 / Fold change vs veh, ZDHHC17 / RFU, NOM1 / Fold change vs veh, NOM1 / RFU, ARL8B / Fold change vs veh, ARL8B / RFU, ZBTB11 / Fold change vs veh, ZBTB11 / RFU, TAMM41 / Fold change vs veh, TAMM41 / RFU, KIAA1704 /// LOC100996395 / Fold change vs veh, KIAA1704 /// LOC100996395 / RFU, ING1 / Fold change vs veh, ING1 / RFU, TRMT61B / Fold change vs veh, TRMT61B / RFU, FUBP3 / Fold change vs veh, FUBP3 / RFU, TP53 / Fold change vs veh, TP53 / RFU, TNKS2 / Fold change vs veh, TNKS2 / RFU, ZFP14 / Fold change vs veh, ZFP14 / RFU, ACTR2 / Fold change vs veh, ACTR2 / RFU, PPP3R1 / Fold change vs veh, PPP3R1 / RFU, PIK3R1 / Fold change vs veh, PIK3R1 / RFU, HNRNPA1 / Fold change vs veh, HNRNPA1 / RFU, RNF170 / Fold change vs veh, RNF170 / RFU, ZNF28 / Fold change vs veh, ZNF28 / RFU, RNGTT / Fold change vs veh, RNGTT / RFU, OGT / Fold change vs veh, OGT / RFU, BRD1 / Fold change vs veh, BRD1 / RFU, MARS / Fold change vs veh, MARS / RFU, ZNF655 / Fold change vs veh, ZNF655 / RFU, FAHD1 / Fold change vs veh, FAHD1 / RFU, BDP1 / Fold change vs veh, BDP1 / RFU, LRRCC1 / Fold change vs veh, LRRCC1 / RFU, ARID1A / Fold change vs veh, ARID1A / RFU, ZNF146 / Fold change vs veh, ZNF146 / RFU, ZNF330 / Fold change vs veh, ZNF330 / RFU, GPN3 / Fold change vs veh, GPN3 / RFU, C9orf123 / Fold change vs veh, C9orf123 / RFU, N4BP2L2 / Fold change vs veh, N4BP2L2 / RFU, ARFIP1 / Fold change vs veh, ARFIP1 / RFU, FAM179B / Fold change vs veh, FAM179B / RFU, BCL10 / Fold change vs veh, BCL10 / RFU, UHRF1BP1L / Fold change vs veh, UHRF1BP1L / RFU, BET1 / Fold change vs veh, BET1 / RFU, CNOT2 / Fold change vs veh, CNOT2 / RFU, ZNF268 / Fold change vs veh, ZNF268 / Fold change vs veh, ZNF507 / RFU, DGCR2 / Fold change vs veh, DGCR2 / RFU, WDSUB1 / Fold change vs veh, WDSUB1 / Fold change vs veh, HSP90B1 /// MIR3652 / RFU, ADSS / Fold change vs veh, ADSS / RFU, GK / Fold change vs veh, GK / RFU, ZNF148 / Fold change vs veh, ZNF148 / RFU, TAF9 / Fold change vs veh, TAF9 / RFU, SLC1A5 / Fold change vs veh, SLC1A5 / RFU, SLMO2 / Fold change vs veh, SLMO2 / RFU, ABCC4 / Fold change vs veh, ABCC4 / RFU, LOC101060439 /// RAP1B / Fold change vs veh, LOC101060439 /// RAP1B / RFU, RFX7 / Fold change vs veh, RFX7 / RFU, GTPBP10 / Fold change vs veh, GTPBP10 / RFU, CNEP1R1 / Fold change vs veh, CNEP1R1 / RFU, BIVM-ERCC5 /// ERCC5 / Fold change vs veh, BIVM-ERCC5 /// ERCC5 / RFU, ILF3 / Fold change vs veh, ILF3 / RFU 11762660_at / Fold change /veh 11762660_at / RFU VCAN (11757783_s_at) / Fold change /veh VCAN (11757783_s_at) / RFU DDX43 (11728927_at) / Fold change /veh DDX43 (11728927_at) / RFU KRT8 (11758188_x_at) / Fold change /veh KRT8 (11758188_x_at) / RFU NKD1 (11759106_at) / Fold change /veh NKD1 (11759106_at) / RFU SRD5A1 (11742802_a_at) / Fold change /veh SRD5A1 (11742802_a_at) / RFU TPSAB1 /// TPSB2 (11721975_s_at) / Fold change /veh TPSAB1 /// TPSB2 (11721975_s_at) / RFU GSTM3 (11746129_a_at) / Fold change /veh GSTM3 (11746129_a_at) / RFU IL23R (11737362_x_at) / Fold change /veh IL23R (11737362_x_at) / RFU TMEM51 (11727254_a_at) / Fold change /veh TMEM51 (11727254_a_at) / RFU PIWIL2 (11732686_x_at) / Fold change /veh PIWIL2 (11732686_x_at) / RFU ORM1 (11744905_x_at) / Fold change /veh ORM1 (11744905_x_at) / RFU CCDC152 (11743942_at) / Fold change /veh CCDC152 (11743942_at) / RFU ECM1 (11717891_a_at) / Fold change /veh ECM1 (11717891_a_at) / RFU IL23R (11748794_a_at) / Fold change /veh IL23R (11748794_a_at) / RFU TNFAIP8L3 (11732012_x_at) / Fold change /veh TNFAIP8L3 (11732012_x_at) / RFU MBOAT4 (11741988_at) / Fold change /veh MBOAT4 (11741988_at) / RFU 11764193_at / Fold change /veh 11764193_at / RFU TMEM53 (11763286_at) / Fold change /veh TMEM53 (11763286_at) / RFU MAGEB2 (11727129_at) / Fold change /veh MAGEB2 (11727129_at) / RFU TMEM200A (11744735_a_at) / Fold change /veh TMEM200A (11744735_a_at) / RFU CCDC152 (11751479_a_at) / Fold change /veh CCDC152 (11751479_a_at) / RFU FAM211A (11726209_a_at) / Fold change /veh FAM211A (11726209_a_at) / RFU RGS16 (11746705_a_at) / Fold change /veh RGS16 (11746705_a_at) / RFU VCAN (11755009_s_at) / Fold change /veh VCAN (11755009_s_at) / RFU RHOB (11743442_s_at) / Fold change /veh RHOB (11743442_s_at) / RFU RGS16 (11720943_a_at) / Fold change /veh RGS16 (11720943_a_at) / RFU RGS16 (11720944_at) / Fold change /veh RGS16 (11720944_at) / RFU, VPS4B / Fold change vs veh, VPS4B / RFU, CREB1 / Fold change vs veh, CREB1 / RFU, DNAJC13 / Fold change vs veh, DNAJC13 / RFU, GNAQ / Fold change vs veh, GNAQ / RFU, CDK5R1 / Fold change vs veh, CDK5R1 / RFU, ZRANB3 / Fold change vs veh, ZRANB3 / RFU, CUL4A / Fold change vs veh, CUL4A / RFU, CCNY / Fold change vs veh, CCNY / RFU, UFL1 / Fold change vs veh, UFL1 / RFU, COG3 / Fold change vs veh, COG3 / RFU, DIAPH2 / Fold change vs veh, DIAPH2 / RFU, SKA2 / Fold change vs veh, SKA2 / RFU, AFF3 / Fold change vs veh, AFF3 / RFU, LMF1 / Fold change vs veh, LMF1 / RFU, IPO11 / Fold change vs veh, IPO11 / RFU, DFFB / Fold change vs veh, DFFB / RFU, FOXP1 / Fold change vs veh, FOXP1 / RFU, CARD8 / Fold change vs veh, CARD8 / RFU, STRN3 / Fold change vs veh, STRN3 / RFU, ADK / Fold change vs veh, ADK / RFU, RASSF2 / Fold change vs veh, RASSF2 / RFU, WIPF1 / Fold change vs veh, WIPF1 / RFU, LARP1B / Fold change vs veh, LARP1B / RFU, RASA1 / Fold change vs veh, RASA1 / RFU, RB1 / Fold change vs veh, RB1 / RFU, PPFIA1 / Fold change vs veh, PPFIA1 / RFU, MAT2A / Fold change vs veh, MAT2A / RFU, CCT5 / Fold change vs veh, CCT5 / RFU, WDR92 / Fold change vs veh, WDR92 / RFU, CUX1 / Fold change vs veh, CUX1 / RFU, TTC7A / Fold change vs veh, TTC7A / RFU, TMEM135 / Fold change vs veh, TMEM135 / RFU, DEPTOR / Fold change vs veh, DEPTOR / RFU, CPM / Fold change vs veh, CPM / RFU, DNAJB6 / Fold change vs veh, DNAJB6 / RFU, CACNA2D3 / Fold change vs veh, CACNA2D3 / RFU, DTX4 / Fold change vs veh, DTX4 / RFU, TFCP2 / Fold change vs veh, TFCP2 / RFU, GMCL1 /// GMCL1P1 / Fold change vs veh, GMCL1 /// GMCL1P1 / RFU, AEBP2 / Fold change vs veh, AEBP2 / RFU, SNHG1 /// SNORD22 /// SNORD25 /// SNORD26 /// SNORD27 /// SNORD28 /// SNORD29 /// SNORD31 / Fold change vs veh, SNHG1 /// SNORD22 /// SNORD25 /// SNORD26 /// SNORD27 /// SNORD28 /// SNORD29 /// SNORD31 / Fold change (Aza/veh), C12orf56 (ProbeSet 11735607_a_at) / Fold change (ACY-1035/veh), C12orf56 (ProbeSet 11735607_a_at) / Fold change (Aza/veh), FGFR1OP (ProbeSet 11751329_s_at) / Fold change (ACY-1035/veh), FGFR1OP (ProbeSet 11751329_s_at) / Fold change (Aza/veh), VPS36 (ProbeSet 11739960_a_at) / Fold change (ACY-1035/veh), VPS36 (ProbeSet 11739960_a_at) / RFU SYPL1 (11715823_x_at) / Fold change /veh SYPL1 (11715823_x_at) / RFU IGFBP7 (11715501_s_at) / Fold change /veh IGFBP7 (11715501_s_at) / RFU REEP3 (11722064_at) / Fold change /veh REEP3 (11722064_at) / RFU IGLL1 (11728026_x_at) / Fold change /veh IGLL1 (11728026_x_at): dose or concentration left out as unconfirmed
Conditions: ProbeSet 11740781_a_at; LIST B

For `Nc1ncn([C@@H]2O[C@H](CO)[C@@H](O)[C@H]2O)c(=O)n1` [azacitidine], the “RFU, ILF3” value was 260.31 RFU.
